Biological target: T1, human cannabinoid CB2 receptor (Homo sapiens, UniProt P34972)
T1 construct: expressed in transfected cells; host or cells: Saccharomyces cerevisiae strain MMY23
Test: Cannabinoid CB2 receptor agonist activity, yeast reporter assay (FDGlu fluorescence);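 on Emax: 100% equals maximal response of reference agonist HU210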
Type: cell-based
Details: for Emax: read-out: efficacy value (Emax) at the cloned human cannabinoid CB2 receptor
Protocol: The cannabinoid CB2 receptor agonist activity of the compounds of formula (I) was determined in accordance with the following experimental method.
Yeast (Saccharomyces cerevisiae) cells expressing the human cannabinoid CB2 receptor were generated by integration of an expression cassette into the ura3 chromosomal locus of yeast strain MMY23. This cassette consisted of DNA sequence encoding the human CB2 receptor flanked by the yeast GPD promoter to the 5′ end of CB2 and a yeast transcriptional terminator sequence to the 3′ end of CB2. MMY23 expresses a yeast/mammalian chimeric G-protein alpha subunit in which the C-terminal 5 amino acids of Gpa1 are replaced with the C-terminal 5 amino acids of human Gαi3 (as described in Brown et al. (2000), Yeast 16:11-22). Cells were grown at 30° C. in liquid Synthetic Complete (SC) yeast media (Guthrie and Fink (1991), Methods in Enzymology, Vol. 194) lacking uracil, tryptophan, adenine and leucine to late logarithmic phase (approximately 6 OD600/ml).
Agonists were prepared as 10 mM stocks in DMSO. […] Agonist solutions in DMSO (1% final assay volume) were transferred into black, clear bottom, microtitre plates from NUNC (96- or 384-well). […] This mixture (50 ul per well for 384-well plates, 200 ul per well for 96-well plates) was added to agonist in the assay plates (Multidrop 384, Labsystems). After incubation at 30° C. for 24 hours, fluorescence resulting from degradation of FDGlu to fluorescein due to exoglucanase, an endogenous yeast enzyme produced during agonist-stimulated cell growth, was determined using a Spectrofluor microtitre plate reader (Tecan; excitation wavelength: 485 nm; emission wavelength: 535 nm). Fluorescence was plotted against compound concentration and iteratively curve fitted using a four parameter fit to generate a concentration effect value.
where Max[compound X] and Min[compound X] are the fitted maximum and minimum respectively from the concentration effect curve for compound X, and Max[HU210] and Min[HU210] are the fitted maximum and minimum respectively from the concentration effect curve for (6aR,10aR)-3-(1,1′-Dimethylheptyl)-6a,7,10,10a-tetrahydro-1-hydroxy-6,6-dimethyl-6H-dibenzo[b,d]pyran-9-methanol (HU210; available from Tocris). Equieffective molar ratio (EMR) values were calculated from the equation EMR=EC50 [compound X]/EC50 [HU210]
Where EC50 [compound X] is the EC50 of compound X and EC50 [HU210] is the EC50 of HU210.

T1 sequence (P34972 whole entry): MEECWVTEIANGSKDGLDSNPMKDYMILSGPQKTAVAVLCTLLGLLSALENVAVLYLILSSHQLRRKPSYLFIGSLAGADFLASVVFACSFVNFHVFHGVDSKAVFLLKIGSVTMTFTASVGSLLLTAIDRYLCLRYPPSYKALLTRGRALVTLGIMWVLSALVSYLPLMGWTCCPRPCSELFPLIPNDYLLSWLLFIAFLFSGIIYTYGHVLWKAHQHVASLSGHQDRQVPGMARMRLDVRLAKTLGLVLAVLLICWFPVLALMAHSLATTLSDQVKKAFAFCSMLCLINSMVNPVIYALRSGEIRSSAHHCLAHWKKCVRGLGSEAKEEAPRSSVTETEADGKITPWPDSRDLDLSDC

SMILES	EC50 [nM]	Emax [%]
CC(C)c1nc(Nc2cccc(F)c2)ccc1C(=O)NCC1CCC1 [Example 216, 6-(3-Fluoro-phenylamino)-N-cyclobutylmethyl-2-isopropyl-nicotinamide]	< 300	> 50
CC(C)c1nc(Nc2ccc(Cl)cc2Cl)ccc1C(=O)NCC1CCOCC1 [Example 214, 6-(2,4-Dichloro-phenylamino)-N-(tetrahydro-pyran-4-ylmethyl)-2-isopropyl-nicotinamide]	< 300	> 50
CC(C)c1cc(Nc2ccc(C#N)cc2F)ncc1C(=O)NCC1CCCC1 [Example 293, 6-(4-Cyano-2-fluoro-phenylamino)-N-cyclopentylmethyl-4-isopropyl-nicotinamide]	< 300	> 50
CC(C)c1cc(Nc2cc(F)ccc2Cl)ncc1C(=O)NCC1CCC1 [Example 267, 6-(2-Chloro-5-fluoro-phenylamino)-N-cyclobutytmethyl-4-isopropyl-nicotinamide]	< 300	> 50
O=C(NCC1CCCC1)c1cnc(Nc2cccc(Br)c2)cc1C(F)(F)F [Example 122, N-Cyclopentylmethyl-6-(3-bromo-phenylamino)-4-tri-fluoromethyl-nicotinamide]	< 300	> 50
Cc1c(Br)cccc1Nc1cc(C(C)C)c(C(=O)NCC(C)C)cn1 [Example 272, 6-(3-Bromo-2-methyl-phenylamino)-N-isobutyl-4-isopropyl-nicotinamide]	< 300	> 50
CC(C)c1cc(Nc2ccc(Br)c(F)c2)ncc1C(=O)NCC1CCS(=O)(=O)C1 (centres unmarked) [Example 279, 6-(4-Bromo-3-fluoro-phenylamino)-N-(1,1-dioxo-tetrahydro-1/^6-thiophen-3-ylmethyl)-4-isopropyl-nicotinamide]	< 300	> 50
O=C(NCC1CCC1)c1cnc(Nc2ccc(F)cc2)cc1C(F)(F)F [Example 134, N-Cyclobutylmethyl-6-(4-fluoro-phenylamino)-4-trifluoromethyl-nicotinamide]	< 300	> 50
CC(C)CNC(=O)c1cnc(Nc2ccc(Cl)cc2Cl)cc1C(F)(F)F [Example 143, N-Isobutyl-6-(2,4-dichloro-phenylamino)-4-trifluoro-methyl-nicotinamide]	< 300	> 50
O=C(NCC1CCCC1)c1cnc(Nc2ccc(Cl)cc2Cl)cc1C(F)(F)F [Example 141, N-Cyclopentylmethyl-6-(2,4-dichloro-phenylamino)-4-tri-fluoromethyl-nicotinamide]	–	> 50
CC(C)c1cc(Nc2ccc(Cl)cc2F)ncc1C(=O)NCC1CCCC1 [Example 91, 6-(4-Chloro-2-fluoro-phenylamino)-N-cyclopentylmethyl-4-isopropyl-nicotinamide]	< 300	> 50
CC(C)c1cc(Nc2cccc(OC(F)(F)F)c2)ncc1C(=O)NCC1CCC1 [Example 224, N-Cyclobutylmethyl-4-isopropyl-6-(3-trifluoromethoxy-phenylamino)-nicotinamide]	< 300	> 50
CC(C)c1nc(Nc2ccc(Cl)cc2Cl)ccc1C(=O)NCC1CCC1 [Example 212, 6-(2,4-Dichloro-phenylamino)-N-cyclobutylmethyl-2-isopropyl-nicotinamide]	< 300	> 50
CC(C)c1nc(Nc2cccc(F)c2)ccc1C(=O)NCC1CCOCC1 [Example 218, 6-(3-Fluoro-phenylamino)-N-(tetrahydro-pyran-4-ylmethyl)-2-isopropyl-nicotinamide]	< 300	> 50
CC(C)c1cc(Nc2cccc(Br)c2)ncc1C(=O)NCC1CCC1 [Example 33, 6-(3-Bromo-phenylamino)-N-cyclobutylmethyl-4-isopropyl-nicotinamide]	< 300	> 50
O=C(NCC1CCC1)c1cnc(Nc2cccc(Cl)c2)cc1C(F)(F)F [Example 112, N-Cyclobutylmethyl-6-(3-chlorophenylamino)-4-tri-fluoromethyl-nicotinamide]	< 300	> 50
CC(C)c1nc(Nc2cccc(Cl)c2)ccc1C(=O)NCC1CCS(=O)(=O)C1 (centres unmarked) [Example 209, 6-(3-Chloro-phenylamino)-N-(1,1-dioxo-tetrahydrothiophen-3-ylmethyl)-2-isopropyl-nicotinamide]	< 300	> 50

SMILES	EC50 [nM]	Emax [%]
Cc1cc(C#N)ccc1Nc1cc(C(C)C)c(C(=O)NCC2CCC2)cn1 [Example 261, 6-(4-Cyano-2-methyl-phenylamino)-N-cyclobutylmethyl-4-isopropyl-nicotinamide]	< 300	> 50
CC(C)c1cc(Nc2cccc(Cl)c2)ncc1C(=O)NCC1CC1 [Example 51, 6-(3-Chloro-phenylamino)-N-cyclopropylmethyl-4-isopropyl-nicotinamide]	< 300	> 50
CC(C)c1cc(Nc2cccc(F)c2)ncc1C(=O)NCC1CCC1 [Example 34, N-Cyclobutylmethyl-6-(3-fluoro-phenylamino)-4-isopropyl-nicotinamide]	< 300	> 50
Cc1c(Nc2cc(C(C)C)c(C(=O)NCC3CCOCC3)cn2)cccc1C(F)(F)F [Example 84, 4-lsopropyl-6-(2-methyl-3-trifluoromethyl-phenylamino)-N-(tetrahydro-pyran-4-ylmethyl)-nicotinamide]	< 300	> 50
CC(C)c1cc(Nc2ccc(Br)c(Cl)c2)ncc1C(=O)NCC1CCOCC1 [Example 90, 6-(4-Bromo-3-chloro-phenylamino)-4-isopropyl-N-(tetrahydro-pyran-4-ylmethyl)-nicotinamide]	< 300	> 50
CC(C)c1cc(N(C)c2ccc(Cl)c(Cl)c2)ncc1C(=O)NCC1CCOCC1 [Example 44, 6-[(3,4-Dichloro-phenyl)-methyl-amino]-4-isopropyl-N-(tetrahydro-pyran-4-ylmethyl)-nicotinamide]	–	> 50
CC(C)c1cc(Nc2ccc(OC(F)(F)F)c(Cl)c2)ncc1C(=O)NCC1CCOCC1 [Example 78, 6-(3-Chloro-4-trifluoromethoxy-phenylamino)-4-isopropyl-N-(tetrahydro-pyran-4-ylmethyl)-nicotinamide]	< 300	> 50
COc1cccc(Nc2cc(C(C)C)c(C(=O)NCC3CCCC3)cn2)c1 [Example 27, N-Cyctopentylmethyl-4-isopropyl-6-(3-methoxyphenylamino) nicotinamide]	< 300	> 50
O=C(NCC1CCC1)c1cnc(Nc2ccc(Cl)cc2Cl)cc1C(F)(F)F [Example 142, N-Cyclobutylmethyl-6-(2,4-dichloro-phenylamino)-4-tri-fluoromethyl-nicotinamide]	< 300	> 50
CC(C)CNC(=O)c1cnc(Nc2cc(F)ccc2Cl)cc1C(C)C [Example 274, 6-(2-Chloro-5-fluoro-phenylamino)-N-isobutyl-4-isopropyl-nicotinamide]	< 300	> 50
CC(C)c1cc(Nc2ccc(Br)cc2Cl)ncc1C(=O)NCC1CCOCC1 [Example 82]	< 300	> 50
CC(C)c1cc(Nc2ccc(C(F)(F)F)cc2Cl)ncc1C(=O)NCC1CCC1 [Example 262, 6-(2-Chloro-4-trifluoromethyl-phenylamino)-N-cyclobutylmethyl-4-isopropyl-nicotinamide]	< 300	> 50
CC(C)c1cc(Nc2cc(Cl)cc(Cl)c2)ncc1C(=O)NCC1CCC1 [Example 263, N-Cyclobutylmethyl-6-(3,5-dichloro-phenylamino)-4-isopropyl-nicotinamide]	< 300	> 50
CC(C)c1cc(Nc2ccc(Br)c(F)c2)ncc1C(=O)NCC1CCOCC1 [Example 297, 6-(4-Bromo-3-fluoro-phenylamino)-4-isopropyl-N-(tetrahydropyran-4-ylmethyl)-nicotinamide]	< 300	> 50
CC(C)c1cc(Nc2cc(Cl)ccc2Cl)ncc1C(=O)NCC1CCC1 [Example 264, N-Cyclobutylmethyl-6-(2,5-dichloro-phenylamino)-4-isopropyl-nicotinamide]	< 300	> 50
CC(C)c1cc(Nc2cccc(Cl)c2)ncc1C(=O)NCC1CCCC1 [Example 21, 6-[(3-Chloro-phenyl)amino]-N-(cyclopentylmethyl)-4-isopropyl-nicotinamide]	–	> 50
CC(C)c1cc(Nc2cccc(Cl)c2)ncc1C(=O)NCC1(O)CCCCC1 [Example 54, 6-(3-Chloro-phenylamino)-N-(1-hydroxy-cyclohexylmethyl)-4-isopropyl-nicotinamide]	< 300	> 50
